Data reported in publication PMC10794144, “A novel antibiotic class targeting the lipopolysaccharide transporter” (Nature, 2024).
Read-outs that look alike come from different tables or passages of the source. Marks after values point to notes of the source that are not given here.

Experiments:
[1] = system: GABA-A (benzodiazapine binding site); assay: Off-target screening (CEREP); design: species or system rat; details: 10 µM, duplicates
Protocol: (§1) Supplementary Table 1 │ Off-target activity screening f or MCP compou nds […]
(§2) The assays given in the table above were conducted at Eurofins CEREP S A (Celle-Lévescault, France) and were run as single point measurements in duplicates in the presence of 10 µ M of the test compound and reported as percent inhibition of the radioligand signal or control enzymatic activity. n.d., not

S. aureus ATCC 29213 = assay: organism not typed; details: for RO7223280 MIC 100%: S. aureus ATCC 29213, read at 100%
Protocol: MIC determinations were performed using the broth microdilution method and in line with CLSI guidelines M07 and M100 (refs. [37],[38]). Bacterial inocula were prepared by diluting a 0.5 McFarland suspension in CAMHB or lysogeny broth (LB) specifically for A. baylyi isolates. […] MIC values of all of the tested antibiotics were read as the lowest compound concentration inhibiting bacterial growth by naked eye or beyond which the OD600 ceased to decrease.

[2] = system: GSK-3A (second line so named); assay: Off-target screening (CEREP); format: biochemical, human; details: 10 µM, duplicates
Protocol: as §1, §2

GSH adduct = format: in vitro ADME
[3] = system: GABA Cl- channel receptor; assay: Off-target screening (CEREP); format: binding, rat; details: 10 µM, duplicates
Protocol: as §1, §2

PCP receptor = assay: Off-target screening (CEREP); format: binding, rat; details: 10 µM, duplicates
Protocol: as §1, §2

[4] = system: Ca2+ channel (diltiazem site); assay: Off-target screening (CEREP); format: binding, rat; details: 10 µM, duplicates
Protocol: as §1, §2

E. coli ATCC 25922 = assay: microbe, parasite or virus in culture; details: for RO7223280 MIC 100%: E. coli ATCC 25922, read at 100%
How it was run: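 MIC was taken as the lowest concentration without visible growth, or past which OD600 no longer fell. Testing followed CLSI M07 and M100 broth microdilution, using 0.5 McFarland-derived inocula in CAMHB (LB for A. baylyi isolates).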

C. albicans ATCC 90028 [5] = assay: microbe, parasite or virus in culture; details: Candida albicans, ATCC90028
[6] = Rat plasma precipitation assay; details: Wistar rat heparin plasma 1:1 with compound in saline/PBS; absorbance difference OD362 ≥ 0.05; n = 1
Protocol: Whole blood was obtained from WISTAR rats and collected in 1.2 ml heparin tubes for the preparation of heparin plasma. The tubes were then centrifuged for 5 min at 5,200g at room temperature to isolate the plasma supernatant. Test compounds were received as powder and solubilized at various concentrations in 0.9% aqueous sodium chloride solution and adjusted for pH with phosphate-buffered saline (PBS). The assay was conducted in 384-well plates. Rat plasma (10 µl) was added to 10 µl of the various compound solutions. A total of 10 µl of vehicle (0.9% aqueous sodium chloride solution, PBS) added to the plasma was used as a negative control. The absorption was measured at 362 nm. Raw data were obtained as absorbance data. The difference between the absorbance of the sample and the mean absorbance of the vehicle was calculated. The minimum effect concentration was defined as the lowest concentration giving an absorbance difference of OD362 ≥ 0.05.

HEK293 cells = assay: Cell-viability assay (CellTiterGlo); format: cell-based; details: Homo sapiens, 24 h, 37 °C, 3.125–100 μM, n = 2
Protocol: Compounds were prepared in serial dilutions (3.125–100 μM in 1% DMSO) and transferred to 384-well plates together with a positive (Staurosporine) and a negative (no compound) control. In total, 25 μl of HEK293 cells (ATCC; verified by short tandem repeat PCR and mycoplasma negative) (50,000 cells per ml) were added in either low-serum-containing (0.5% fetal bovine serum (FBS)) or high-serum-containing (12.5% FBS, 1% BSA) medium (Dulbecco’s modified Eagle medium (DMEM), glucose, L-glutamine). The plates were incubated for 24 h at 37 °C and a mixture of CellTiterGlo and DMEM was added to the plates. After incubation at room temperature, the luminescence signal was read using a BioTeK reader and a calculated IC50 was derived from the data.

C. albicans ATCC 90028 [7] = details: C. albicans ATCC 90028, read at 100%
[8] = Mouse pharmacokinetics study, i.v. bolus; format: in vivo; details: male CD1 mice, 1 mg/kg IV
Protocol: Three male CD1 mice were administered with compound formulation (0.5 mg ml^−1 in 0.9% aqueous sodium chloride solution) as an intravenous bolus dose of 1 mg per kg. Blood was sampled at 0.08, 0.25, 0.5, 1, 2, 4, 7 and 24 h after administration and the blood collecting tubes were centrifuged for 5 min at 5,200g at room temperature to isolate the plasma supernatant. The concentrations of compound in the plasma were analysed using a liquid chromatography–mass spectrometry method with a calibration range of 5–10,000 ng ml^−1. The pharmacokinetic parameters were derived from the individual concentration data and were estimated by non-compartmental analysis.

hERG = hERG (Homo sapiens, UniProt Q12809); assay: hERG
CYP2C9 = CYP2C9 (Homo sapiens, UniProt P11712); assay: CYP inhibition; format: in vitro ADME
panel of 50 off-targets = assay: Off-target activity screening, number of hits in panel of 50; format: binding; details: > 30% inhibition at 10 μM

Chain of hERG (Q12809 whole entry): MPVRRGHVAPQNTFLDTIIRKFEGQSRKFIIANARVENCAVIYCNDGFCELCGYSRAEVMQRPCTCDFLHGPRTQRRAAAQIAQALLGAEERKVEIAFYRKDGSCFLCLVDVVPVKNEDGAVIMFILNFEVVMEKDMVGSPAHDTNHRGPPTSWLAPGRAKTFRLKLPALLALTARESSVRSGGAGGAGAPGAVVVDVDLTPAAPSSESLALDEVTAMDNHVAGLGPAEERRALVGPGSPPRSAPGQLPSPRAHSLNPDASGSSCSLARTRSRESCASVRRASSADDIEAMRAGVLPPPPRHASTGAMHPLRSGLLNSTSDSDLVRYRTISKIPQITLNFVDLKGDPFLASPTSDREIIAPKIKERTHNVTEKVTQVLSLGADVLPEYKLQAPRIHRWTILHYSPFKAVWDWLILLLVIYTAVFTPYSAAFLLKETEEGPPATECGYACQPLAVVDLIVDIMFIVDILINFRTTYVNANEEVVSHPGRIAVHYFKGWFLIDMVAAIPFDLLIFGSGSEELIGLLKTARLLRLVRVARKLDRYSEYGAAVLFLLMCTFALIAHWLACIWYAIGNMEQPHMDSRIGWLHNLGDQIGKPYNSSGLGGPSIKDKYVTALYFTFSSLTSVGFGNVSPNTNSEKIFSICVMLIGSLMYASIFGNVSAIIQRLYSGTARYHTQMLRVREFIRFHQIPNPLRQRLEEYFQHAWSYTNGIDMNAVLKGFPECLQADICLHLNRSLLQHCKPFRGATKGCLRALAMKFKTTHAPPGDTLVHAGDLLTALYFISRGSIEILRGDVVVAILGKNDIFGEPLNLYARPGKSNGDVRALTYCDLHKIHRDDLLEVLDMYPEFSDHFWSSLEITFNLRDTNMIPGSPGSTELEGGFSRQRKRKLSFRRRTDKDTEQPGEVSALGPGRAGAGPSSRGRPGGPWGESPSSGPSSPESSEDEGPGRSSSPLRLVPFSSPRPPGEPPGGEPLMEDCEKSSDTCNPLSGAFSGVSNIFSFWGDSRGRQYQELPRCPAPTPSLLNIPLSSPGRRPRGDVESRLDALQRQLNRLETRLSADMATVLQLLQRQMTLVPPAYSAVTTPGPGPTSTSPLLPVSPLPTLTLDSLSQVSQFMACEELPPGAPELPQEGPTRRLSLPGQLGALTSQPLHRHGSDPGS
Chain of CYP2C9 (P11712 whole entry): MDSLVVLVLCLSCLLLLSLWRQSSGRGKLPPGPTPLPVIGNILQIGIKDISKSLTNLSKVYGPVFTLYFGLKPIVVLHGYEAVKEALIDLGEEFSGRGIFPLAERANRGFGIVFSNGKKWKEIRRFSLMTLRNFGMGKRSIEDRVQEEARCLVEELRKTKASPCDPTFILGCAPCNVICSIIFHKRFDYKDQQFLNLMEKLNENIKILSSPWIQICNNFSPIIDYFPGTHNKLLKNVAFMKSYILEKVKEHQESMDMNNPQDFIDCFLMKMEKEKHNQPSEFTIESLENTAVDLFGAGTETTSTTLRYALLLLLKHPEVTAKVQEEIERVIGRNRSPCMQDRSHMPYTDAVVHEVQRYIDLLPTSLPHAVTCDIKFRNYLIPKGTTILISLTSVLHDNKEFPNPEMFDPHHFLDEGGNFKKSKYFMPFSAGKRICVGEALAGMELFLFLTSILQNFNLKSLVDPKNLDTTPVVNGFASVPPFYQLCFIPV

## CN1C(=O)[C@H](CCCCN)NC(=O)[C@H](CCCN)NCc2cccnc2Sc2cccc(-c3ccc(C(=O)O)cc3)c2CNC(=O)[C@@H]1Cc1c[nH]c2ccccc12 [zosurabalpin]
[1]
  percent inhibition: -1%
Micronucleus test (MNT)
  MNT: Negative
S. aureus ATCC 29213; Study LGC296813
  RO7223280 MIC 100%: >64 mg/L
S. aureus ATCC 29213; Study LGC299544
  RO7223280 MIC 100%: >64 mg/L
S. aureus ATCC 29213; Study LGC308175
  RO7223280 MIC 100%: >64 mg/L
S. aureus ATCC 29213; Staphylococcus aureus, ATCC29213
  MIC: > 64 mg/L
[2]
  percent inhibition: -3%
GSH adduct
  GSH adduct: Clean
[3]
  percent inhibition: 1%
PCP receptor
  percent inhibition: -24%
[4]
  percent inhibition: -11%
Ames
  Ames: Negative
E. coli ATCC 25922; Study LGC296813
  RO7223280 MIC 100%: >64 mg/L
E. coli ATCC 25922; Study LGC299544
  RO7223280 MIC 100%: >64 mg/L
E. coli ATCC 25922; Study LGC308175
  RO7223280 MIC 100%: >64 mg/L
E. coli ATCC 25922; Escherichia coli, ATCC25922
  MIC: > 64 mg/L
C. albicans ATCC 90028 [5]
  MIC: > 64 mg/L
[6]
  Threshold concentration for precipitation: 1.76 mg/mL
HEK293 cells
  IC50: > 100 µM
C. albicans ATCC 90028 [7]; Study LGC296813
  RO7223280 MIC 100%: >64 mg/L
C. albicans ATCC 90028 [7]; Study LGC299544
  RO7223280 MIC 100%: >64 mg/L
C. albicans ATCC 90028 [7]; Study LGC308175
  RO7223280 MIC 100%: >64 mg/L
[8]; n = 3
  Vss: 0.7 L/kg
  t1/2, terminal plasma half-life: 18 min
[8]; n = 3, LC-MS, non-compartmental
  Cl: 3.06 L/h/kg
hERG
  IC50: > 20 µM
  hERG IC20: > 10 µM
CYP2C9
  CYP inh. (2C9): >50 (3A4) >50 (2C9) >50 (2D6) μM
Panel of 50 off-targets
  Off-target hits: 0 #
